Experimental data taken from patent publication US20180327367A1, “MACROCYCLIC BROAD SPECTRUM ANTIBIOTICS” (priority 2015, published 2018).
In brackets after ≈: the same amount, converted by molar mass. Where two headings read alike, the source gives them in different places.

Tests used:
[1] = system: Methicillin Resistant Staphylococcus aureus strain USA 300, NRS384; assay: Minimum inhibitory concentration, broth micro-dilution (CLSI), S. aureus; assay type: cell-based; details: Staphylococcus aureus, MRSA / NRS 384 / USA300, 22 h, 35° C., 22 hours
Outline: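 Ten-point 2-fold series began at 4 μg/mL in protocol 2 and 0.5 μg/mL in protocol 3, in cation-adjusted MHB plus 0.002% Tween-80. Bacteria added to OD600 0.0005 final and incubated at 35° C for 22 hours per CLSI microdilution.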

[2] = system: Escherichia coli MC4100 harboring the IMP4213 (E. coli IMP); assay: microbe, parasite or virus in culture; assay type: cell-based; details: Escherichia coli, 22 h, read-out: MIC (μg/mL) E. coli IMP, E. coli MC4100 IMP4213, increased outer-membrane permeability; 35° C., 22 hours
Outline: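 Colonies grown 20 hours at 35° C were suspended in cation-adjusted Mueller Hinton Broth with 0.002% Tween-80. Cells were then added to 2-fold compound dilutions starting at 4 or 0.5 μg/mL, at OD600 0.0005.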

[3] = system: Escherichia coli ATCC 25922; assay: Minimum inhibitory concentration, broth micro-dilution (CLSI), E. coli; assay type: cell-based; details: Escherichia coli, ATCC25922, 22 h, 35° C., 22 hours
[4] = biological target: T1, SpsB (Staphylococcus aureus signal peptidase) (Staphylococcus aureus, UniProt P0A070); assay: cell-based; assay type: biochemical; details: SpsB IC50, whole-cell S. aureus (USA300 background, overexpressing SpsB) as SpsB source; fluorogenic peptide substrate, kinetic read 30 min
T1 construct: This assay uses a suspension of Staphylococcus aureus cells as a source of SpsB instead of recombinant SpsB protein; endogenous in cells; host or cells: S. aureus, USA300 background, overexpressing SpsB (whole-cell suspension from frozen pellets)
T1 sequence (P0A070 whole entry): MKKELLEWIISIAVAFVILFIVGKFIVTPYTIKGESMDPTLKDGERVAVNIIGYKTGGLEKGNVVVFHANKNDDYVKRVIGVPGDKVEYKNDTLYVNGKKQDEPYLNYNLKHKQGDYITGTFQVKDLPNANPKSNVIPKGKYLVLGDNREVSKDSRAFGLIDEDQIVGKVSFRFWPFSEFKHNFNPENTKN
Outline: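 Whole S. aureus cells (USA300, overexpressing SpsB) in PBS with MgCl2, CaCl2 and 0.1% Tween-80 served as enzyme source, mixed with 20 μM stock of (Dabcyl)βAla-KPAKAAE(Edans) substrate before use. Fluorescence (ex 340/em 490 nm) read kinetically over 30 min. IC50 from reaction rate versus 11-point inhibitor concentration.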

[5] = MRSA USA 300 NRS384, read-out: MIC (μg/mL) S. aureus
[6] = E. coli ATCC 25922, read-out: MIC (μg/mL) E. coli
[7] = read-out: MIC (μg/mL) S. aureus, MRSA USA 300 NRS384
[8] = read-out: MIC (μg/mL) E. coli, E. coli ATCC 25922

Structure (SMILES) | MIC [1, 5] [µg/mL] | MIC [2] [µg/mL] | MIC [3, 6] [µg/mL] | IC50 [4] [nM] | MIC [1, 7] [µg/mL] | MIC [3, 8] [µg/mL]
CCCCCCCCCCNCCS(=O)(=O)N[C@@H](CCN)C(=O)N(C)[C@@H]1C(=O)N[C@@H](C)C(=O)N[C@H](C(=O)NCC#N)Cc2ccc(OCCN)c(c2)-c2cc1ccc2OCCN [Compound 350] | 0.016 (≈ 0.0181 µM) | 0.063 (≈ 0.0712 µM) | 4 (≈ 4.52 µM) | 1 | – | –
CCCCCCCCCC(=O)N[C@H](CCC)C(=O)N[C@@H](CCN)C(=O)N(C)[C@@H]1C(=O)N[C@@H](C)C(=O)N[C@H](C(=O)NCC#N)Cc2ccc(OCCN)c(c2)-c2cc1ccc2OCCN [Compound 353] | – | 0.016 (≈ 0.018 µM) | – | 0.82 | 0.047 (≈ 0.0527 µM) | 2 (≈ 2.24 µM)
CCCCc1ccc(C(=O)N[C@H](CCC)C(=O)N[C@@H](CCN)C(=O)N(C)[C@@H]2C(=O)N[C@@H](C)C(=O)N[C@H](C(=O)NCC#N)Cc3ccc(OCCN)c(c3)-c3cc2ccc3OCCN)c(C)c1 [Compound 354] | – | 0.063 (≈ 0.0691 µM) | – | 1.8 | 0.25 (≈ 0.274 µM) | 8 (≈ 8.78 µM)
CCCCc1ccc(C(=O)N[C@@H](CCC)C(=O)N[C@@H](CCN)C(=O)N(C)[C@@H]2C(=O)N[C@@H](C)C(=O)N[C@H](C(=O)NCC#N)Cc3ccc(OCCN)c(c3)-c3cc2ccc3OCCN)c(C)c1 [Compound 355] | – | 0.031 (≈ 0.034 µM) | – | 1.1 | 0.13 (≈ 0.143 µM) | 4 (≈ 4.39 µM)
CCCCCCCCCC(=O)N[C@@H](CO)C(=O)N[C@@H](CCN)C(=O)N(C)[C@@H]1C(=O)N[C@@H](C)C(=O)N[C@H](C(=O)NCC#N)Cc2ccc(OCCN)c(c2)-c2cc1ccc2OCCN [Compound 360] | – | 0.31 (≈ 0.353 µM) | – | 1.2 | 0.22 (≈ 0.25 µM) | 24 (≈ 27.3 µM)
CCCCCCCCCC(=O)N[C@H](C)C(=O)NCC(=O)N[C@@H](CCN)C(=O)N(C)[C@@H]1C(=O)N[C@@H](C)C(=O)N[C@H](C(=O)NCC#N)Cc2ccc(OCCN)c(c2)-c2cc1ccc2OCCN [Compound 366] | – | 0.38 (≈ 0.413 µM) | – | 0.64 | 0.25 (≈ 0.272 µM) | 48 (≈ 52.2 µM)
CCCCCCCCCC(=O)NCCC(=O)N[C@@H](CCN)C(=O)N(C)[C@@H]1C(=O)N[C@@H](C)C(=O)N[C@H](C(=O)NCC#N)Cc2ccc(OCCN)c(c2)-c2cc1ccc2OCCN [Compound 367] | 0.094 (≈ 0.109 µM) | 0.13 (≈ 0.151 µM) | 12 (≈ 13.9 µM) | 0.88 | – | –
CCCCCCCCCNC(=O)CCC(=O)N[C@@H](CCN)C(=O)N(C)[C@@H]1C(=O)N[C@@H](C)C(=O)N[C@H](C(=O)NCC#N)Cc2ccc(OCCN)c(c2)-c2cc1ccc2OCCN [Compound 369] | 0.063 (≈ 0.073 µM) | 0.063 (≈ 0.073 µM) | 4 (≈ 4.63 µM) | 0.47 | – | –
CCCCc1ccc(C(=O)NCC(=O)N[C@@H](CCN)C(=O)N(C)[C@@H]2C(=O)N[C@@H](C)C(=O)N[C@H](C(=O)NCC#N)Cc3ccc(OCCN)c(c3)-c3cc2ccc3OCCN)c(C)c1 [Compound 370] | – | 0.13 (≈ 0.15 µM) | – | 1.1 | 0.19 (≈ 0.219 µM) | 16 (≈ 18.4 µM)
CCCCc1ccc(C(=O)NCC(=O)NCC(=O)N[C@@H](CCN)C(=O)N(C)[C@@H]2C(=O)N[C@@H](C)C(=O)N[C@H](C(=O)NCC#N)Cc3ccc(OCCN)c(c3)-c3cc2ccc3OCCN)c(C)c1 [Compound 371] | – | 0.5 (≈ 0.54 µM) | – | 1.3 | 0.25 (≈ 0.27 µM) | 32 (≈ 34.6 µM)
CCCCCCCCCC(=O)NCC(=O)N[C@@H](CCN)C(=O)N(C)[C@@H]1C(=O)N[C@@H](C)C(=O)N[C@H](C(=O)NCC#N)Cc2ccc(OCCN)c(c2)-c2cc1ccc2OCCN [Compound 372] | – | 0.094 (≈ 0.111 µM) | – | 0.47 | 0.13 (≈ 0.153 µM) | 8 (≈ 9.42 µM)
CCCCCCCCCC(=O)N[C@@H](C)C(=O)N[C@@H](CCN)C(=O)N(C)[C@@H]1C(=O)N[C@@H](C)C(=O)N[C@H](C(=O)NCC#N)Cc2ccc(OCCN)c(c2)-c2cc1ccc2OCCN [Compound 373] | – | 0.063 (≈ 0.073 µM) | – | 0.88 | 0.19 (≈ 0.22 µM) | 4 (≈ 4.63 µM)
CCCCc1ccc(NC(=O)CCC(=O)N[C@@H](CCN)C(=O)N(C)[C@@H]2C(=O)N[C@@H](C)C(=O)N[C@H](C(=O)NCC#N)Cc3ccc(OCCN)c(c3)-c3cc2ccc3OCCN)c(C)c1 [Compound 377] | 0.13 (≈ 0.147 µM) | 0.13 (≈ 0.147 µM) | 8 (≈ 9.06 µM) | 1 | – | –
CCCCCCCCCC(=O)N[C@@H](CCO)C(=O)N[C@@H](CCN)C(=O)N(C)[C@@H]1C(=O)N[C@@H](C)C(=O)N[C@H](C(=O)NCC#N)Cc2ccc(OCCN)c(c2)-c2cc1ccc2OCCN [Compound 378] | – | 0.25 (≈ 0.28 µM) | – | 0.87 | 0.13 (≈ 0.146 µM) | 24 (≈ 26.9 µM)
CCCCCCCCCC(=O)N[C@H](CCO)C(=O)N[C@@H](CCN)C(=O)N(C)[C@@H]1C(=O)N[C@@H](C)C(=O)N[C@H](C(=O)NCC#N)Cc2ccc(OCCN)c(c2)-c2cc1ccc2OCCN [Compound 379] | – | 0.25 (≈ 0.28 µM) | – | 0.89 | 0.25 (≈ 0.28 µM) | 32 (≈ 35.8 µM)
CCCCc1ccc(C(=O)N[C@H](CCO)C(=O)N[C@@H](CCN)C(=O)N(C)[C@@H]2C(=O)N[C@@H](C)C(=O)N[C@H](C(=O)NCC#N)Cc3ccc(OCCN)c(c3)-c3cc2ccc3OCCN)c(C)c1 [Compound 381] | – | 0.5 (≈ 0.548 µM) | – | 2.9 | 0.5 (≈ 0.548 µM) | 64 (≈ 70.1 µM)
CCCCCCCc1ccc(C(=O)N[C@@H](CO)C(=O)N[C@@H](CCN)C(=O)N(C)[C@@H]2C(=O)N[C@@H](C)C(=O)N[C@H](C(=O)NCC#N)Cc3ccc(OCCN)c(c3)-c3cc2ccc3OCCN)cc1 [Compound 383] | – | 0.023 (≈ 0.0248 µM) | – | 0.88 | 0.018 (≈ 0.0194 µM) | 4 (≈ 4.31 µM)
CCCCCCCCCCCC(=O)N[C@@H](CO)C(=O)N[C@@H](CCN)C(=O)N(C)[C@@H]1C(=O)N[C@@H](C)C(=O)N[C@H](C(=O)NCC#N)Cc2ccc(OCCN)c(c2)-c2cc1ccc2OCCN [Compound 384] | – | 0.031 (≈ 0.0342 µM) | – | 1.2 | 0.012 (≈ 0.0132 µM) | 3 (≈ 3.31 µM)
CCCCCCCSc1ccc(C(=O)N[C@@H](CCN)C(=O)N(C)[C@@H]2C(=O)N[C@@H](C)C(=O)N[C@H](C(=O)NCC#N)Cc3ccc(OCCN)c(c3)-c3cc2ccc3OCCN)c(C)c1 [Compound 389] | 0.063 (≈ 0.0711 µM) | 0.031 (≈ 0.035 µM) | 0.25 (≈ 0.282 µM) | 0.81 | – | –
CCCCCCCS(=O)(=O)c1ccc(C(=O)N[C@@H](CCN)C(=O)N(C)[C@@H]2C(=O)N[C@@H](C)C(=O)N[C@H](C(=O)NCC#N)Cc3ccc(OCCN)c(c3)-c3cc2ccc3OCCN)c(C)c1 [Compound 390] | 0.13 (≈ 0.142 µM) | 0.031 (≈ 0.0338 µM) | 3 (≈ 3.27 µM) | 1.1 | – | –
